Results reported in patent publication US11912682B2, “Isoindolinone compounds” (Monte Rosa Therapeutics, Inc., priority 2021, dated 2024).
Read-outs that look alike come from different tables or passages of the source.

Columns and labels:
[1] = molecular target: Full length wild-type cereblon CRBN (Homo sapiens (Human), UniProt Q96SW2); experiment: fluorescence polarization (FP) assay, cereblon binding
Description: Compound activity was monitored in a fluorescence polarization (FP) homogeneous assay using 1-[5-({2-[2-(2-{[2-(2,6-dioxopiperidin-3-yl)-1,3-dioxo-2,3-dihydro-1H-isoindol-4-yl]oxy}acetamido)ethoxy]ethyl}carbamoyl)pentyl]-3,3-dimethyl-2-[(1E,3E)-5-[(2E)-1,3,3-trimethyl-5-sulfo-2,3-dihydro-1H-indol-2-ylidene]penta-1,3-dien-1-yl]-3H-indol-1-ium-5-sulfonate as a fluorescent probe. Unless otherwise stated, all reagents were purchased from Sigma Aldrich. […] Full length wild-type cereblon CRBN (80.0 nM, 10 μL) was incubated in assay buffer containing 20 mM HEPES (pH 8.0), […], 0.5 mM TCEP and 0.05% Tween 20 in the presence or absence of compound (300 nL). Inhibitors were stored as 10 mM DMSO stocks in an inert environment (low humidity, dark, low oxygen, room temperature) using the Storage Pod System. […] Following incubation at room temperature for 30 min, the assay was initiated by dispensing the probe to a final concentration of 5 nM (2.5 nL of a 20 μM stock) using the Echo ESXX. […] The FP signal was subsequently normalized to the no-compound control (i.e., DMSO). Analysis and IC50 values were derived using Dotmatics (Dotmatics UK) software.

GSPT1 = GSPT1 (Homo sapiens (Human), UniProt P15170+Q96SW2); experiment: immunofluorescence assay for GSPT1 degradation in CAL-51 cells (Example 4); type: cell-based
Sequence of GSPT1 (P15170 whole entry): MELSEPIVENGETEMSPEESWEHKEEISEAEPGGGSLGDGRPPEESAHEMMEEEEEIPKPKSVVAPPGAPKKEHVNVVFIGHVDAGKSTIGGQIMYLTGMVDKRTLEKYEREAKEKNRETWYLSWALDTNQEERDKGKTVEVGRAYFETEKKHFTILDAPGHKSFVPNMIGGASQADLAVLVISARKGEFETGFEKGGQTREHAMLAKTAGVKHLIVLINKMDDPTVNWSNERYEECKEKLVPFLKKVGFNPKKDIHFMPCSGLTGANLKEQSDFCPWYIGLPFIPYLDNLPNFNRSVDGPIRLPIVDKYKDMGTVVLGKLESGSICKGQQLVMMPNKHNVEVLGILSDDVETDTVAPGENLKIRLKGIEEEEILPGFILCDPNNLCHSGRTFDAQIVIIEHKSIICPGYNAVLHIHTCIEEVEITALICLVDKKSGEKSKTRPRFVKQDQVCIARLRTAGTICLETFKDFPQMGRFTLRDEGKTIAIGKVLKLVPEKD
Sequence of GSPT1 (Q96SW2 whole entry): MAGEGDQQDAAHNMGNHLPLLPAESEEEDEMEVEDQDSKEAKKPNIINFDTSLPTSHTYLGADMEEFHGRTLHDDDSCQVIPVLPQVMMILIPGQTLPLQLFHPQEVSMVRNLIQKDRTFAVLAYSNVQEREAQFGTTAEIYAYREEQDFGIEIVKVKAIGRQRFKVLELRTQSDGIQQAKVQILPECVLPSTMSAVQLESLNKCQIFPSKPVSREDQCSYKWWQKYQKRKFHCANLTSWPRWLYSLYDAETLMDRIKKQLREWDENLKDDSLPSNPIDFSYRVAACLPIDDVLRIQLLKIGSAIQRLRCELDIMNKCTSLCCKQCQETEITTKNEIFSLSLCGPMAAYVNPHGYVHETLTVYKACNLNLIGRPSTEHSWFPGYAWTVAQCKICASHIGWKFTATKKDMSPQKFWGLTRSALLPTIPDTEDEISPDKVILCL
Sequence of GSPT1 (Q16531 2-1140 partner): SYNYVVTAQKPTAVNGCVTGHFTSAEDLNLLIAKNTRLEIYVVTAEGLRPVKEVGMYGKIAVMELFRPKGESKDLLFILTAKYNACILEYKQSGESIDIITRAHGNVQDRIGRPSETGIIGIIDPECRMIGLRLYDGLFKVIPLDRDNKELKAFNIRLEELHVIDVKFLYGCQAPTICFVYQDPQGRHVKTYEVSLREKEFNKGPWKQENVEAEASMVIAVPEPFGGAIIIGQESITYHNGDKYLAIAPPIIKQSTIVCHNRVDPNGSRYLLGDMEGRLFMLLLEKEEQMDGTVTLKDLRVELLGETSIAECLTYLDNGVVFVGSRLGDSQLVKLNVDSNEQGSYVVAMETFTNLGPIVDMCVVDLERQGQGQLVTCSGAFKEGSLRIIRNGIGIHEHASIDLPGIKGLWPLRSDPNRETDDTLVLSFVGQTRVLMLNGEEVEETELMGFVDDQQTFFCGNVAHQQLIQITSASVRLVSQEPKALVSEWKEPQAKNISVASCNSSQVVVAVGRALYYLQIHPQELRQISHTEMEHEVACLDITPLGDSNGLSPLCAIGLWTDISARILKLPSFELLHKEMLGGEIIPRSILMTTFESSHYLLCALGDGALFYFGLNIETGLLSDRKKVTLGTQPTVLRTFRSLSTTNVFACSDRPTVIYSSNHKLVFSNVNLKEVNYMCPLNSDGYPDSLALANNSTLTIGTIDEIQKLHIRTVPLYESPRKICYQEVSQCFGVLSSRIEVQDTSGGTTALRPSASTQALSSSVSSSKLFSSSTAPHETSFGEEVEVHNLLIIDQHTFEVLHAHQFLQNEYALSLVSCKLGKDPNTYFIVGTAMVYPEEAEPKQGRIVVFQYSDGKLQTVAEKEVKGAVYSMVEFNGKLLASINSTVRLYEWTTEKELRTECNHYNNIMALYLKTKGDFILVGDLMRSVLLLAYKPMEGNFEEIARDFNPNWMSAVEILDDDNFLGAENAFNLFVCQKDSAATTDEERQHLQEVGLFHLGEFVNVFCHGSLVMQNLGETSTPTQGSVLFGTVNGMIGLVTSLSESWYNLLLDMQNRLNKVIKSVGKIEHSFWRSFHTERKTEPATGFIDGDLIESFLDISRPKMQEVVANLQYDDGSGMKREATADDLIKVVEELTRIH
Protocol: The representative compounds were tested in an immunofluorescence assay for their activity to bind to degrade GSPT1. CAL-51 cells were purchased from DSMZ (cat. Number ACC302), sub-cultured in 90% Dulbecco's MEM (4.5 g/L glucose, Gibco 11965) +10% heat inactivated FBS (BioConcept, 2-01F136I) and incubated at 37° C., 5% CO2. For the assay, imaging microtiterplate Cell Carrier 96 Ultra (Perkin Elmer 6055302) were pre-coated with Fibronectin (Sigma F085, 30 μl at 0.2 μg/ml) in PBS (100 μl, Gibco 14190) for 45 min at room temperature, rinsed with PBS and CAL-51 cells (30 K cells/well) were plated and let to adhere overnight. Cells were treated with compounds typically using a serial dilution ranging from 30 μM to 0.1 nM for 6 hours. Compounds were stored at 10 mM DMSO stocks. Vehicle (DMSO), positive (CC-885, 10 μM) and rescue controls (positive control plus 0.2 μM bortezomib) were also included atthis stage. Cells were subsequently rinsed with PBS and fixed in 10% Formalin solution (50 μl, Sigma HT5011)) for 20 mins at room temperature. Following three consecutive PBS washes (100 μl), cells were permeabilized in 0.1% Triton X-100 in PBS (Sigma 93443, 50 μl) for 15 mins at room temperature. Following three further PBS washes, 50 μl blocking buffer (1% BSA, Sigma A4503, in PBS) was added for 45 min for signal-to-noise reduction.
Primary antibody (human GSPT1, Sigma HPA052488) was diluted in blocking buffer (dil.1/300, 35 μl/well) and incubated with the cells overnight at 4° C. After three PBS washes, Alexa-fluor 488 coupled secondary antibodies (Invitrogen, A32731, dil.1/1000), Alexa-fluor 647-Phalloidin (Invitrogen, A22287, dil.1/200) and DAPI (Thermo, #62248, dil.1/1000) were diluted in blocking buffer and incubated with the samples for 2 hours at room temperature. After three final PBS washes, samples were conserved in 100 μl PBS in the dark, until measurement. Image acquisition was performed on the Operetta High-Content Imager (Perkin-Elmer). Fluorescence intensity of Alexa-Fluor 488 (GSPT1), Alexa-Fluor 647 (Actin) and DAPI (Nucleus) were measured. For the determination of GSPT1 DC50 values, a custom algorithm implemented in the PerkinElmer image analysis software Harmony-Acapella® was developed. After user-defined setting of adjustment parameters, the analysis was run identically without human intervention for all image fields. DAPI staining of the nuclei was used to determine the location of cells using standard nuclei detection modules. Segmentation artifacts were removed by threshold-based filters for area, roundness and intensity. The outline of the cells was determined analogously from the sum of the normalized, smoothed DAPI and Actin channel, starting from each nucleus. The Alexa-Fluor 488 (GSPT1) signal intensity in each cell was finally measured, in order to obtain a Mean intensity per cell. GSPT1 degradation (DC50) was calculated after normalization to controls and data import in CDD vault Database, using non-linear regression.

[2] = 6 hours, read-out: Activity for GSPT1 degradation, Code (DC50)
[3] = GSPT1 degradation, read-out: DC50 value

Sequence of Full length wild-type cereblon CRBN (Q96SW2 whole entry): as the sequence (Q96SW2 whole entry) above

| IC50 ([1]; read-out: IC50 value) [nM] | DC50 (GSPT1; [2]) [nM] | DC50 (GSPT1; [3]) [nM] | IC50 ([1]; read-out: rFP IC50) [nM] | SMILES |
| --- | --- | --- | --- | --- |
| < 1100 | < 30 | ≤ 30 | – | Cc1c(Cl)cc(NC(=O)OCc2ccc3c(c2)C(=O)N(C2CCC(=O)NC2=O)C3)cc1CN1CCOCC1 (stereo not shown) [Compound 2] |
| < 1100 | < 30 | ≤ 30 | – | O=C1CCC(N2Cc3ccc(COC(=O)Nc4cc(CN5CCOCC5)cc(OC(F)(F)F)c4)cc3C2=O)C(=O)N1 (stereo not shown) [Compound 4] |
| < 1100 | 30 to 300 | – | – | Cc1cc(NC(=O)OCc2ccc3c(c2)C(=O)N(C2CCC(=O)NC2=O)C3)cc(C)n1 (stereo not shown) [Compound 7] |
| < 1100 | < 30 | ≤ 30 | – | Cc1cc(C)cc(NC(=O)OCc2ccc3c(c2)C(=O)N(C2CCC(=O)NC2=O)C3)c1 (stereo not shown) [Compound 8] |
| < 1100 | < 30 | ≤ 30 | – | Cc1c(Cl)cc(NC(=O)OCc2ccc3c(c2)C(=O)N(C2CCC(=O)NC2=O)C3)cc1CN1CC2CC1CO2 (stereo not shown) [Compound 13] |
| – | > 300 | – | < 500 | O=C1CCC(N2Cc3ccc(COC(=O)Nc4cc(Cl)cc(OCC5CCNC5)c4)cc3C2=O)C(=O)N1 (stereo not shown) [Compound 16] |
| – | > 300 | – | > 1700 | Cc1ccc(NC(=O)OC(C)c2ccc3c(c2)C(=O)N(C2CCC(=O)NC2=O)C3)cc1Cl (stereo not shown) [Compound 17] |
| < 1100 | 30 to 300 | – | – | O=C1CCC(N2Cc3ccc(COC(=O)Nc4ccc5c(c4)OCC5)cc3C2=O)C(=O)N1 (stereo not shown) [Compound 18] |
| – | 30 to 300 | – | > 1700 | O=C1CCC(N2Cc3ccc(COC(=O)Nc4cc(Cl)cc(OC(F)F)c4)cc3C2=O)C(=O)N1 (stereo not shown) [Compound 19] |
| – | < 30 | ≤ 30 | > 1700 | Cc1c(Cl)cc(NC(=O)OCc2ccc3c(c2)C(=O)N(C2CCC(=O)NC2=O)C3)cc1CN1CC2CCC(C1)O2 (stereo not shown) [Compound 21] |
| – | > 300 | – | > 1700 | O=C1CCC(N2Cc3ccc(COC(=O)NCC4CC4)cc3C2=O)C(=O)N1 (stereo not shown) [Compound 22] |
| – | > 300 | – | < 500 | O=C1CCC(N2Cc3ccc(COC(=O)N4CCCCC4)cc3C2=O)C(=O)N1 (stereo not shown) [Compound 23] |
| < 1100 | < 30 | ≤ 30 | – | Cc1ccc(NC(=O)OCc2ccc3c(c2)C(=O)N(C2CCC(=O)NC2=O)C3)cc1OC(F)F (stereo not shown) [Compound 24] |
| < 1100 | < 30 | ≤ 30 | – | Cc1c(CN2CCOCC2)cc(NC(=O)OCc2ccc3c(c2)C(=O)N(C2CCC(=O)NC2=O)C3)cc1OC(F)F (stereo not shown) [Compound 25] |
| < 1100 | > 300 | – | – | O=C1CCC(N2Cc3ccc(COC(=O)N4CCCC4)cc3C2=O)C(=O)N1 (stereo not shown) [Compound 26] |
| – | > 300 | – | > 1700 | CC(C)CCNC(=O)OCc1ccc2c(c1)C(=O)N(C1CCC(=O)NC1=O)C2 (stereo not shown) [Compound 27] |
| < 1100 | > 300 | – | – | O=C1CCC(N2Cc3ccc(COC(=O)NC4CCCC4)cc3C2=O)C(=O)N1 (stereo not shown) [Compound 29] |
| – | > 300 | – | < 500 | O=C1CCC(N2Cc3ccc(COC(=O)N4CCC(Oc5ccccc5)C4)cc3C2=O)C(=O)N1 (stereo not shown) [Compound 30] |
| – | 30 to 300 | – | > 1700 | O=C1CCC(N2Cc3ccc(COC(=O)Nc4cc(F)cc(OC(F)F)c4)cc3C2=O)C(=O)N1 (stereo not shown) [Compound 31] |
| – | 30 to 300 | – | > 1700 | O=C1CCC(N2Cc3ccc(COC(=O)Nc4ccc(F)c(OC(F)F)c4)cc3C2=O)C(=O)N1 (stereo not shown) [Compound 32] |
| – | < 30 | ≤ 30 | > 1700 | Cc1c(CN2CCOCC2)cc(NC(=O)OCc2ccc3c(c2)C(=O)N(C2CCC(=O)NC2=O)C3)cc1OC(F)(F)F (stereo not shown) [Compound 34] |

| IC50 ([1]; read-out: IC50 value) [nM] | DC50 (GSPT1; [2]) [nM] | DC50 (GSPT1; [3]) [nM] | IC50 ([1]; read-out: rFP IC50) [nM] | SMILES |
| --- | --- | --- | --- | --- |
| – | > 300 | – | < 500 | O=C1CCC(N2Cc3ccc(COC(=O)NC4CCN(c5ccccn5)CC4)cc3C2=O)C(=O)N1 (stereo not shown) [Compound 35] |
| – | > 300 | – | < 500 | O=C1CCC(N2Cc3ccc(COC(=O)N4CCN(c5ccccc5)CC4)cc3C2=O)C(=O)N1 (stereo not shown) [Compound 36] |
| – | 30 to 300 | – | > 1700 | COc1cc(NC(=O)OCc2ccc3c(c2)C(=O)N(C2CCC(=O)NC2=O)C3)ccc1C (stereo not shown) [Compound 37] |
| < 1100 | > 300 | – | – | COc1cc(Cl)ccc1NC(=O)OCc1ccc2c(c1)C(=O)N(C1CCC(=O)NC1=O)C2 (stereo not shown) [Compound 38] |
| < 1100 | < 30 | ≤ 30 | – | O=C1CCC(N2Cc3ccc(COC(=O)Nc4ccc(C5CC5)cc4)cc3C2=O)C(=O)N1 (stereo not shown) [Compound 39] |
| – | 30 to 300 | – | < 500 | CN1CCC(COc2cc(Cl)cc(NC(=O)OCc3ccc4c(c3)C(=O)N(C3CCC(=O)NC3=O)C4)c2)C1 (stereo not shown) [Compound 40] |
| < 1100 | < 30 | ≤ 30 | – | Cc1c(F)cc(NC(=O)OCc2ccc3c(c2)C(=O)N(C2CCC(=O)NC2=O)C3)cc1CN1CCOCC1 (stereo not shown) [Compound 41] |
| < 1100 | 30 to 300 | – | – | Cc1c(Cl)cc(NC(=O)OCc2ccc3c(c2)C(=O)N(C2CCC(=O)NC2=O)C3)cc1OC1CCNC1 (stereo not shown) [Compound 44] |
| – | 30 to 300 | – | > 1700 | CCc1cc(NC(=O)OCc2ccc3c(c2)C(=O)N(C2CCC(=O)NC2=O)C3)cc(Cl)c1C (stereo not shown) [Compound 45] |
| – | < 30 | ≤ 30 | < 500 | CN1CCC(Oc2cc(Cl)cc(NC(=O)OCc3ccc4c(c3)C(=O)N(C3CCC(=O)NC3=O)C4)c2)C1 (stereo not shown) [Compound 46] |
| – | < 30 | ≤ 30 | > 1700 | O=C1CCC(N2Cc3ccc(COC(=O)Nc4ccc(-c5ccccn5)cc4)cc3C2=O)C(=O)N1 (stereo not shown) [Compound 50] |
| < 1100 | 30 to 300 | – | – | COc1cc(NC(=O)OCc2ccc3c(c2)C(=O)N(C2CCC(=O)NC2=O)C3)cnc1C (stereo not shown) [Compound 51] |
| < 1100 | > 300 | – | – | Cc1c(Cl)cc(NC(=O)OCc2ccc3c(c2)C(=O)N(C2CCC(=O)NC2=O)C3)cc1OCC1CCNC1 (stereo not shown) [Compound 52] |
| < 1100 | 30 to 300 | – | – | O=C1CCC(N2Cc3ccc(COC(=O)Nc4cnc5c(c4)CCC5)cc3C2=O)C(=O)N1 (stereo not shown) [Compound 53] |
| – | > 300 | – | < 500 | O=C1CCC(N2Cc3ccc(COC(=O)Nc4cnc5c(c4)COCC5)cc3C2=O)C(=O)N1 (stereo not shown) [Compound 54] |
| < 1100 | < 30 | ≤ 30 | – | CCc1cc(NC(=O)OCc2ccc3c(c2)C(=O)N(C2CCC(=O)NC2=O)C3)cnc1C (stereo not shown) [Compound 55] |
| – | < 30 | ≤ 30 | > 1700 | O=C1CCC(N2Cc3ccc(COC(=O)Nc4cc(F)cc(OC(F)(F)F)c4)cc3C2=O)C(=O)N1 (stereo not shown) [Compound 57] |
| < 1100 | < 30 | ≤ 30 | – | CC1(c2ccc(NC(=O)OCc3ccc4c(c3)C(=O)N(C3CCC(=O)NC3=O)C4)cc2)CC1 (stereo not shown) [Compound 58] |
| – | 30 to 300 | – | < 500 | O=C1CCC(N2Cc3ccc(COC(=O)Nc4cc(OC(F)(F)F)ccn4)cc3C2=O)C(=O)N1 (stereo not shown) [Compound 59] |
| – | 30 to 300 | – | < 500 | O=C1CCC(N2Cc3ccc(COC(=O)Nc4ccc(N5CCCC5)nc4)cc3C2=O)C(=O)N1 (stereo not shown) [Compound 60] |
| – | < 30 | ≤ 30 | > 1700 | O=C1CCC(N2Cc3ccc(COC(=O)Nc4ccc(F)c(OC(F)(F)F)c4)cc3C2=O)C(=O)N1 (stereo not shown) [Compound 61] |
